Test results as given in ChEMBL document CHEMBL5149994, “Anticancer potential of indirubins in medicinal chemistry: Biological activity, structural modification, and structure-activity relationship” (Eur J Med Chem, 2021).
Values belong to the molecule of their own block, whether it stands above or below them.

Experiments:
[1] = test system: OCI-AML2; test: Antiproliferative activity against human OCI-AML2 cells assessed as cell growth inhibition measured after 72 hrs by MTT assay; assay type: functional, cell-based; settings: OCI-AML2, 72 h
[2] = test system: K562; test: Antiproliferative activity against human K562 cells assessed as cell growth inhibition measured after 72 hrs by MTT assay; assay type: functional, cell-based; settings: K562, 72 h
[3] = test system: OCI-AML2; test: Antiproliferative activity against imatinib and Ara-C resistant human OCI-AML2 cells assessed as cell growth inhibition measured after 72 hrs by MTT assay; assay type: functional, cell-based; settings: OCI-AML2, 72 h
[4] = test system: K562; test: Antiproliferative activity against imatinib treated human K562 cells assessed as cell growth inhibition measured after 72 hrs by MTT assay; assay type: functional, cell-based; settings: K562, 72 h
[5] = target: T1, Receptor-type tyrosine-protein kinase FLT3 (Homo sapiens, UniProt P36888); test: Inhibition of FLT3 (unknown origin)
T1 sequence (P36888 whole entry): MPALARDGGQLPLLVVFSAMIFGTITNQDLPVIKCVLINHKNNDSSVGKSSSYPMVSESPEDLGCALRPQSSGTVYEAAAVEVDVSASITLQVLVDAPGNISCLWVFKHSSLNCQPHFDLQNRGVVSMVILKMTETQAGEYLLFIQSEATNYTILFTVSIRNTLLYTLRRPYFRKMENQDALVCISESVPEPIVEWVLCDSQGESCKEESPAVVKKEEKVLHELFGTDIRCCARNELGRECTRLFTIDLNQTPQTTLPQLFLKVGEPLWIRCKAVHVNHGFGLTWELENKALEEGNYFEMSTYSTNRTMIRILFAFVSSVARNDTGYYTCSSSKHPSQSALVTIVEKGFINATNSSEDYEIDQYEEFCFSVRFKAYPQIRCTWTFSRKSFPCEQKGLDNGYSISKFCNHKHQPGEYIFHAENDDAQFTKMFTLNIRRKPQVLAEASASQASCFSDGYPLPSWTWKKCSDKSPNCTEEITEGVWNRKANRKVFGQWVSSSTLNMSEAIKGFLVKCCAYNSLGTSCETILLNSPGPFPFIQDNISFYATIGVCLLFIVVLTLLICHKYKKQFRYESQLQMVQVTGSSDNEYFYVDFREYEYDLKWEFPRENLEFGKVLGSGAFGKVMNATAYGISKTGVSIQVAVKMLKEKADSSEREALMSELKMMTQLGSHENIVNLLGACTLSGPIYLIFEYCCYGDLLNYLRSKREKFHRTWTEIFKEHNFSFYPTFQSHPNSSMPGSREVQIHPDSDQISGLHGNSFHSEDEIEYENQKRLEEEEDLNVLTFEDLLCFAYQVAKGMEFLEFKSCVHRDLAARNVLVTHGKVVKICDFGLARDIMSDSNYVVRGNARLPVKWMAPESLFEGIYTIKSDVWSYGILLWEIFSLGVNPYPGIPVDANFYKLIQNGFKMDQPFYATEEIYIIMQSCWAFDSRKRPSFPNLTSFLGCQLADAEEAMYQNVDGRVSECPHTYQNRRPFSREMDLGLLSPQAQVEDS

[6] = target: T1, Receptor-type tyrosine-protein kinase FLT3; test: Inhibition of recombinant FLT3 (unknown origin) by HTRF assay
[7] = test system: MV4-11; test: Cytotoxicity in human MV4-11 cells assessed as cell growth inhibition incubated for 48 hrs by propidium iodide staining based flow cytometry assay; assay type: functional
[8] = target: T1, Receptor-type tyrosine-protein kinase FLT3; test: Inhibition of recombinant FLT3 (unknown origin) in presence of ATP by HTRF assay
[9] = target: Serine/threonine-protein kinase Sgk1 (Homo sapiens, UniProt O00141); test: Inhibition of SGK (unknown origin) in presence of ATP
[10] = Inhibition of VEGFR (unknown origin); parameters: species or system Homo sapiens
[11] = test system: A549; test: Antitumor activity against human A549 cells xenografted in CD1 mouse assessed as reduction in tumour weight at 6 mg/kg, sc treated 3 times a week for 25 days in presence of thymoquinone relative to control; assay type: functional; parameters: scale not given: the % may be the effect or the level left; settings: time 25 day
[12] = target: T2, CDK2/Cyclin A2 (Homo sapiens, UniProt P24941); test: Inhibition of GST-fused human CDK2/cyclin A expressed in Escherichia coli using histone H1 as substrate in presence of [33p]-gamma ATP and MgATP
[13] = Antiproliferative activity against human OZ [Human cholangiocarcinoma] cells assessed as cell growth inhibition measured upto 72 hrs by CCK-8 assay; assay type: functional, cell-based
[14] = test system: HUVEC; test: Antiproliferative activity against HUVEC cells assessed as cell growth inhibition measured after 3 days by [3H]-thymidine incorporation assay; assay type: functional, cell-based; settings: Homo sapiens
[15] = target: Tyrosine-protein kinase Lck (Homo sapiens, UniProt P06239); test: Inhibition of LCK (unknown origin) in presence of ATP
[16] = test system: A549; test: Antitumor activity against human A549 cells xenografted in CD1 mouse assessed as reduction in tumour volume at 6 mg/kg, sc treated 3 times a week for 25 days in presence of thymoquinone relative to control; assay type: functional; parameters: scale not given: the % may be the effect or the level left; settings: time 25 day
[17] = test system: MCF7; test: Cytotoxicity against human MCF7 cells assessed as cell growth inhibition measured after 3 days by SRB assay; assay type: functional, cell-based; settings: MCF7, 72 h
[18] = test system: HuCCT-1; test: Antiproliferative activity against human HuCCT-1 cells assessed as cell growth inhibition measured upto 72 hrs by CCK-8 assay; assay type: functional, cell-based; settings: HuCCT-1, 72 h
[19] = Antiproliferative activity against human NOZ cells assessed as cell growth inhibition measured upto 72 hrs by CCK-8 assay; assay type: functional, cell-based
[20] = target: Cyclin-dependent kinase 4/cyclin D1 (Homo sapiens, UniProt P11802); test: Inhibition of CDK4/cyclin D1 (unknown origin); assay type: protein-complex assay
[21] = Inhibition of CDK2/cyclin E (unknown origin); parameters: species or system Homo sapiens
[22] = target: Receptor-type tyrosine-protein kinase FLT3 (Homo sapiens, UniProt P36888, D835Y); test: Inhibition of recombinant FLT3 D835Y mutant (unknown origin) in presence of ATP by HTRF assay
[23] = test system: HL-60; test: Antiproliferative activity against human HL-60 cells assessed as cell growth inhibition measured after 3 days by trypan blue staining based inverted microscope method; assay type: functional; settings: HL-60, 72 h, time 3 day
[24] = species: Danio rerio; test: Antiangiogenic activity in transgenic zebrafish embryo assessed as inhibition of angiogenic vessel growth incubated for 24 hrs by FITC staining based analysis; assay type: functional, organism-based
[25] = target: Fibroblast growth factor receptor 1 (Homo sapiens, UniProt P11362); test: Inhibition of FGFR1 (unknown origin)
[26] = test system: MV4-11; test: Antiproliferative activity against human MV4-11 cells assessed as cell growth inhibition measured after 72 hrs by tetrazolium staining based WST-8 assay; assay type: functional; settings: MV4-11, 72 h
[27] = test system: LXFL 529; test: Cytotoxicity against human LXFL 529 cells assessed as cell growth inhibition measured after 3 days by SRB assay; assay type: functional, cell-based; settings: LXFL 529, 72 h
[28] = target: T2, CDK2/Cyclin A2; test: Inhibition of CDK2/cyclin A (unknown origin); assay type: protein-complex assay
[29] = Antitumor activity against human PDAC cells xenografted in BALB/c nu/nu mouse assessed as reduction in tumour weight at 40 mg/kg, ip treated every other day for 6 days relative to control; assay type: functional; parameters: scale not given: the % may be the effect or the level left; settings: time 6 day
[30] = test system: MCF7; test: Antiproliferative activity against human MCF7 cells assessed as cell growth inhibition; assay type: functional, cell-based
[31] = test system: HCT-116; test: Antiproliferative activity against human HCT-116 cells assessed as cell growth inhibition; assay type: functional, cell-based
[32] = test system: LXFL 529; test: Antiproliferative activity against human LXFL 529 cells assessed as cell growth inhibition; assay type: functional, cell-based
[33] = test system: MIA PaCa-2; test: Antiproliferative activity against human MIA PaCa-2 cells assessed as cell growth inhibition measured after 42 hrs by MTS assay; assay type: functional, cell-based; settings: MIA PaCa-2, 42 h
[34] = test system: PANC-1; test: Antiproliferative activity against human PANC-1 cells assessed as cell growth inhibition measured after 42 hrs by MTS assay; assay type: functional, cell-based; settings: PANC-1, 42 h
[35] = target: Non-receptor tyrosine-protein kinase TYK2 (Homo sapiens, UniProt P29597); test: Inhibition of recombinant Tyk2 (unknown origin)
[36] = target: Tyrosine-protein kinase JAK2 (Homo sapiens, UniProt O60674); test: Inhibition of recombinant JAK2 (unknown origin)
[37] = target: Tyrosine-protein kinase HCK (Homo sapiens, UniProt P08631); test: Inhibition of recombinant Hck (unknown origin)
[38] = test system: BXPC-3; test: Antiproliferative activity against human BXPC-3 cells assessed as cell growth inhibition measured after 42 hrs by MTS assay; assay type: functional, cell-based; settings: BXPC-3, 42 h
[39] = target: Tyrosine-protein kinase JAK1 (Homo sapiens, UniProt P23458); test: Inhibition of recombinant JAK1 (unknown origin)
[40] = target: Tyrosine-protein kinase Lyn (Homo sapiens, UniProt P07948); test: Inhibition of recombinant Lyn (unknown origin)
[41] = target: Proto-oncogene tyrosine-protein kinase Src (Homo sapiens, UniProt P12931); test: Inhibition of recombinant c-Src (unknown origin)
[42] = Antiproliferative activity against human TT cells assessed as cell growth inhibition measured after 48 hrs by Cell titer-Glo assay; assay type: functional, cell-based
[43] = target: Glycogen synthase kinase-3 (Sus scrofa, UniProt B2LUN4+I6LNT8); test: Inhibition of porcine brain GSK-3alpha/beta incubated for 30 mins in presence of [33p]-gamma ATP by scintillation counter analysis
[44] = target: Aurora kinase B (Homo sapiens, UniProt Q96GD4); test: Inhibition of Aurora B (unknown origin)
[45] = target: Aurora kinase C (Homo sapiens, UniProt Q9UQB9); test: Inhibition of Aurora C (unknown origin)

Sequence of Tyrosine-protein kinase JAK1 (P23458 whole entry): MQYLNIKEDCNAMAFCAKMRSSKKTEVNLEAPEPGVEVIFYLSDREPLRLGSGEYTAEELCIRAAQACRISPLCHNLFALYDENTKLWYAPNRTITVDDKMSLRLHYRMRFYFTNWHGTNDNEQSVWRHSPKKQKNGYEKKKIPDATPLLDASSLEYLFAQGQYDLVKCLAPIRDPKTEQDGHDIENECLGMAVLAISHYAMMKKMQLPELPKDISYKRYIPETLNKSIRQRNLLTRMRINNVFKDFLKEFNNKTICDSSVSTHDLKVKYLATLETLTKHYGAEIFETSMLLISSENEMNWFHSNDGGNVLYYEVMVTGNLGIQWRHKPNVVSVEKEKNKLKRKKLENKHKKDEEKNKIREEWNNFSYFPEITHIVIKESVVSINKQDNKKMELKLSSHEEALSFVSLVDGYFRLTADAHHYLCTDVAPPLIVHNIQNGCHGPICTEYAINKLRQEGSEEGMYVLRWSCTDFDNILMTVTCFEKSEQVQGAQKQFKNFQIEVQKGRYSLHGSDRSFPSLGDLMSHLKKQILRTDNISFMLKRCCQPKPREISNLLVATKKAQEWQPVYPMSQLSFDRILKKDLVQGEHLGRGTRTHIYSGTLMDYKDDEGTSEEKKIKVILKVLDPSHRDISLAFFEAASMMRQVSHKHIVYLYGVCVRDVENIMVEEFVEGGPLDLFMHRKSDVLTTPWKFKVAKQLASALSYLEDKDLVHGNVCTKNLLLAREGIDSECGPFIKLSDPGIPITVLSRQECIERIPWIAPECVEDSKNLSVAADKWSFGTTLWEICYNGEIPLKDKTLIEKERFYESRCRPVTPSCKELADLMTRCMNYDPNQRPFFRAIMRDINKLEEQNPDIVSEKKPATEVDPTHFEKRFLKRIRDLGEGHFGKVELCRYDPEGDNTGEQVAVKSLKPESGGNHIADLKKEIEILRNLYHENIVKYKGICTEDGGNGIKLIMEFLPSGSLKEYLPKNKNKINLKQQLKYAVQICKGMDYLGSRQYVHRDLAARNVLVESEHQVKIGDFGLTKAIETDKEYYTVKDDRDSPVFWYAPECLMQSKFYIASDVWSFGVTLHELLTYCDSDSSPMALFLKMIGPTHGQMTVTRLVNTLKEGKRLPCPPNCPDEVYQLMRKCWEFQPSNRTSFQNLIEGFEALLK
Sequence of Non-receptor tyrosine-protein kinase TYK2 (P29597 whole entry): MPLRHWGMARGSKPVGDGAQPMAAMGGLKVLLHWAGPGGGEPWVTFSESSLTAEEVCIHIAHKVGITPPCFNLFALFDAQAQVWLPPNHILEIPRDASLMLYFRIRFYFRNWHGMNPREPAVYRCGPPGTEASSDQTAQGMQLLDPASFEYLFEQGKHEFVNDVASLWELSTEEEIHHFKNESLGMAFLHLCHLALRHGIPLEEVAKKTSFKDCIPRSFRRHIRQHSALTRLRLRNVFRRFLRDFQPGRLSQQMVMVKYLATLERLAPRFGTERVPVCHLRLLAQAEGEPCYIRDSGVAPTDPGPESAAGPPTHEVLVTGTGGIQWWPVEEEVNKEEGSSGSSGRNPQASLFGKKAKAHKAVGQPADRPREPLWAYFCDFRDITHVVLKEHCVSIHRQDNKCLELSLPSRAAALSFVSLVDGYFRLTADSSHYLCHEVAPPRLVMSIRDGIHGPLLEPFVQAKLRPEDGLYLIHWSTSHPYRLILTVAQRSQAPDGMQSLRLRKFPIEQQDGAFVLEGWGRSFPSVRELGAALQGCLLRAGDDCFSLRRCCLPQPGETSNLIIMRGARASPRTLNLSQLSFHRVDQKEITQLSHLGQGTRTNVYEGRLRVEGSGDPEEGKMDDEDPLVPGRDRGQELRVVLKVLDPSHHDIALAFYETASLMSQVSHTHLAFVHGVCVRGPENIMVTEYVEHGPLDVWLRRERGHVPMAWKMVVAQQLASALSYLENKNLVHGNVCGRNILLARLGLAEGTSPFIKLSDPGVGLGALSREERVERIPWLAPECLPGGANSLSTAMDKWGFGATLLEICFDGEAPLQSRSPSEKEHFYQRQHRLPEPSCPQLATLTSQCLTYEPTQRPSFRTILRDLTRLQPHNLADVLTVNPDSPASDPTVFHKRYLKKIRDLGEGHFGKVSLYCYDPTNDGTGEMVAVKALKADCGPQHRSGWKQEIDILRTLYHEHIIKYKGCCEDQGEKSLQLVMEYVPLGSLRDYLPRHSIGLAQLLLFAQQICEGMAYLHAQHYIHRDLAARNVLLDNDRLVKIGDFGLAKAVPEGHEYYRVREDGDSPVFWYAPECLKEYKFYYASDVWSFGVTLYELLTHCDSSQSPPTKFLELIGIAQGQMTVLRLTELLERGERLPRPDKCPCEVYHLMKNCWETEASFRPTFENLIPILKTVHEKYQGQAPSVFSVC
Sequence of Serine/threonine-protein kinase Sgk1 (O00141 whole entry): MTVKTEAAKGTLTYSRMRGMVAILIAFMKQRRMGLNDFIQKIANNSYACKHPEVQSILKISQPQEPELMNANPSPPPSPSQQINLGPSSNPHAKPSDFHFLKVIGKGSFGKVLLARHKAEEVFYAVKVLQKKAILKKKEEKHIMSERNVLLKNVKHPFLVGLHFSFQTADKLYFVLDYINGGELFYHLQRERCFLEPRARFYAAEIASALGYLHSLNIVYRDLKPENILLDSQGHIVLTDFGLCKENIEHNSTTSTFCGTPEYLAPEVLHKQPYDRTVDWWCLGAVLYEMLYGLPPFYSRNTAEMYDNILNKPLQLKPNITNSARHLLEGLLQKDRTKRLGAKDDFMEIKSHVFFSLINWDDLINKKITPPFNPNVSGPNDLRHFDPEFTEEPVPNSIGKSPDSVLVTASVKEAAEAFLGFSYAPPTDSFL
Sequence of Fibroblast growth factor receptor 1 (P11362 whole entry): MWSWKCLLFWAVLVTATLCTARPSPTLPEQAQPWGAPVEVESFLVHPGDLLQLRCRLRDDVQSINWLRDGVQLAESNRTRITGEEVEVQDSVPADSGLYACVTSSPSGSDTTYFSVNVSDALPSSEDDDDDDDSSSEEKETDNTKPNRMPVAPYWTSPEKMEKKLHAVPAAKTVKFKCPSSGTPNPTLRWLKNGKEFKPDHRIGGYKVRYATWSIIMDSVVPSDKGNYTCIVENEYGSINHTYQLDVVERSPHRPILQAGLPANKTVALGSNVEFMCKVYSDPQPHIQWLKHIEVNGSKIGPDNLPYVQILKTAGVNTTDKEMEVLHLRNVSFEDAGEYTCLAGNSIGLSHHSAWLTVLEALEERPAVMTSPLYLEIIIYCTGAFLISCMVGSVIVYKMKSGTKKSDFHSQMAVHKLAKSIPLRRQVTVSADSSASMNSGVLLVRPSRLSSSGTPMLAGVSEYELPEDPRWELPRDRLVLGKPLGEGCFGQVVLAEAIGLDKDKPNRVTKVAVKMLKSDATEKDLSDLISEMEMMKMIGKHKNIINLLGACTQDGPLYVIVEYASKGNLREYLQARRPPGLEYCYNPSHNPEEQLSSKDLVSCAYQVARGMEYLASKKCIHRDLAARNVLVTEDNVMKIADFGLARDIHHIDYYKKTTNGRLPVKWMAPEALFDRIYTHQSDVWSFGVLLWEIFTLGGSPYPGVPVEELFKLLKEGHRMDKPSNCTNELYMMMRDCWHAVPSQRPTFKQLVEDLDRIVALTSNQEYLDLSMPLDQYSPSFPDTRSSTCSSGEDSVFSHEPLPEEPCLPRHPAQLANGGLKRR
Sequence of Tyrosine-protein kinase HCK (P08631 whole entry): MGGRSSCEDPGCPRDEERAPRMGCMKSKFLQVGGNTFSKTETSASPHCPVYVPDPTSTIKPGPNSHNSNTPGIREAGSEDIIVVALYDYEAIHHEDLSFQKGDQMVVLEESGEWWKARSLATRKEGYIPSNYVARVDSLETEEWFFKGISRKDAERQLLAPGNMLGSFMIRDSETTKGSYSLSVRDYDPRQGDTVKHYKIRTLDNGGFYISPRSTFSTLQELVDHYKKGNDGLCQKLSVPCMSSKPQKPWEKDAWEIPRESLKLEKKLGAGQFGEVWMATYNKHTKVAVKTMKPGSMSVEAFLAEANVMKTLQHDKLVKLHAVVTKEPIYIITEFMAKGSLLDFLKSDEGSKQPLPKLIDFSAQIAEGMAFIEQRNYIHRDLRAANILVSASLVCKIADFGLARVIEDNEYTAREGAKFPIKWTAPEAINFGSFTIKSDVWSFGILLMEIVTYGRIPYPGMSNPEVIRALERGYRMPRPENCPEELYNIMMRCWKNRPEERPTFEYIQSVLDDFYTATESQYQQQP
Sequence of Tyrosine-protein kinase Lyn (P07948 whole entry): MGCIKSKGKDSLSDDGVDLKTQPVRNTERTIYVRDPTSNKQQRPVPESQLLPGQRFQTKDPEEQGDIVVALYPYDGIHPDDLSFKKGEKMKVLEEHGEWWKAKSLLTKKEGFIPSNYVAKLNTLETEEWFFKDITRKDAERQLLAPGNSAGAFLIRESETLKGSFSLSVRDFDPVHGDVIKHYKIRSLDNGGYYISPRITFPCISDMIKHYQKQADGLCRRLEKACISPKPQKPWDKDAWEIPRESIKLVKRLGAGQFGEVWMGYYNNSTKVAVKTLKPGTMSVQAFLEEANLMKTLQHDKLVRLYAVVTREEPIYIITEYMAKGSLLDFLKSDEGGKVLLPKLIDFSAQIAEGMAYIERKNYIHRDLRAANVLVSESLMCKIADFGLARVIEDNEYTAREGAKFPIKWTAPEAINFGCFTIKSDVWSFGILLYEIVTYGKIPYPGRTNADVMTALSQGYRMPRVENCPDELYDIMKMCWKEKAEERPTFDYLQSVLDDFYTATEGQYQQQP
Sequence of Aurora kinase B (Q96GD4 whole entry): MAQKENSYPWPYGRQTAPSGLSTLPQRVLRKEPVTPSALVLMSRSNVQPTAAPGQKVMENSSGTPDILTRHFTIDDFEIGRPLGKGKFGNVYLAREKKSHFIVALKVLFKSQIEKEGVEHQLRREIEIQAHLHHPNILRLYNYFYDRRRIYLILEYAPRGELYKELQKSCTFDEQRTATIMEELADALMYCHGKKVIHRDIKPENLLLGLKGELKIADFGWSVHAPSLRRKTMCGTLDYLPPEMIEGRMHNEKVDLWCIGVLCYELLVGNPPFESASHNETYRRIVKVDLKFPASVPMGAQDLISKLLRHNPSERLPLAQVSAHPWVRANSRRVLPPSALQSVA

Structure (SMILES): O=C1Nc2ccc(NC(=O)C(c3ccccc3)c3ccccc3)cc2/C1=C1/Nc2ccccc2/C1=N\O
IC50 [1]: 2420 nM | IC50 [2]: 2910 nM | IC50 [3]: 2360 nM | IC50 [4]: 3650 nM

Structure (SMILES): O=C1Nc2ccccc2/C1=C1/Nc2ccccc2/C1=N\O
IC50 [8]: 79 nM | IC50 [9]: 380 nM | IC50 [10]: 1480 nM | Activity [11]: 66.7% | IC50 [12]: 590 nM | IC50 [13]: 4700 nM | IC50 [14]: 360 nM | IC50 [15]: 300 nM | IC50 [5]: 101 nM | Activity [16]: 83.5% | IC50 [17]: 3300 nM | IC50 [18]: 5000 nM | IC50 [19]: 4400 nM | IC50 [20]: 3330 nM | IC50 [21]: 250 nM | IC50 [22]: 101 nM | GI50 [23]: 36600 nM | IC50 [24]: 310 nM | IC50 [25]: 2500 nM | IC50 [26]: 30 nM | IC50 [27]: 3000 nM | IC50 [28]: 440 nM

Structure (SMILES): COc1ccc2c(c1)/C(=C1/Nc3ccccc3/C1=N\O)C(=O)N2
Activity [29]: 60%

Structure (SMILES): COc1ccc2c(c1)/C(=C1/Nc3ccccc3/C1=N\OCCO[C@@H]1O[C@H](CO)[C@@H](O)[C@H](O)[C@H]1O)C(=O)N2
IC50 [30]: 1200 nM | IC50 [31]: 500 nM | IC50 [32]: 500 nM

Second part, led by results:

IC50 [5]: 7.89 nM | IC50 [6]: 7.89 nM
Structure (SMILES): O=C1Nc2ccc(C(=O)O)cc2/C1=C1/Nc2ccccc2/C1=N\O
GI50 [7]: > 1000 nM

IC50 [33]: 760 nM | IC50 [34]: 760 nM | IC50 [35]: 10.7 nM | IC50 [36]: 10.7 nM | IC50 [37]: 10.7 nM | IC50 [38]: 760 nM | IC50 [39]: 10.7 nM | IC50 [40]: 10.7 nM | IC50 [41]: 10.7 nM
Structure (SMILES): COc1ccc2c(c1)/C(=C1/Nc3ccccc3/C1=N\OCC(O)CO)C(=O)N2 (stereo unspecified)

IC50 [43]: 32000 nM | IC50 [44]: 4600 nM | IC50 [45]: 100 nM
Structure (SMILES): O=C1Nc2c(Br)cccc2/C1=C1/Nc2ccccc2/C1=N\O
IC50 [42]: 4100 nM
